Results reported in ChEMBL document CHEMBL3885881, “DrugMatrix”.

Species: Rattus norvegicus
Assay: DrugMatrix - Regimen: Daily Repeat
Format: toxicity, organism-based, Sprague-Dawley
Design: regimen Daily Repeat, gender Male, age 6-8 weeks
Details: in vivo, po, route oral GAVAGE, […]; for ABSOLUTE BASOPHIL / ABSOLUTE EOSINOPHIL / ABSOLUTE LYMPHOCYTE / ABSOLUTE MONOCYTE / ABSOLUTE SEGMENTED NEUTROPHIL / BASOPHIL / EOSINOPHIL / ERYTHROCYTE COUNT / HEMATOCRIT / HEMOGLOBIN / LEUKOCYTE COUNT / LYMPHOCYTE / MEAN CORPUSCULAR HEMOGLOBIN / MEAN CORPUSCULAR HEMOGLOBIN CONCENTRATION / MEAN CORPUSCULAR VOLUME / MONOCYTE / NEUTROPHIL / NUCLEATED RED BLOOD CELLS / PLATELET COUNT: tissue Blood; for ALANINE AMINOTRANSFERASE / ALBUMIN / ALKALINE PHOSPHATASE / ASPARTATE AMINOTRANSFERASE / BLOOD UREA NITROGEN / CARBON DIOXIDE / CHLORIDE / CHOLESTEROL / CREATINE PHOSPHOKINASE / CREATININE / GLUCOSE / LACTATE DEHYDROGENASE / LIPASE / PHOSPHORUS / POTASSIUM / SODIUM / TOTAL BILIRUBIN / TOTAL PROTEIN / URIC ACID: tissue Plasma
[1] = 25 mg/kg, 120 h, dose level Low, time 5 day
[2] = 800 mg/kg, 72 h, dose level High, time 3 day
[3] = 800 mg/kg, 120 h, dose level High, time 5 day

How did the “ABSOLUTE BASOPHIL” value [1] turn out when `CC(C)(C)NC(=O)[C@H]1CC[C@H]2[C@@H]3CC[C@H]4NC(=O)C=C[C@]4(C)[C@H]3CC[C@]12C` [FINASTERIDE] was run?
Its value is 0 CELLS/uL.

What about the “ABSOLUTE EOSINOPHIL” value [1] of the same molecule?
Its value is 34.67 CELLS/uL.

What about the “ABSOLUTE LYMPHOCYTE” value [1] of the same molecule?
Its value is 7140 CELLS/uL.

And the “ABSOLUTE MONOCYTE” value [1]?
Its value is 141.33 CELLS/uL.

And the “ABSOLUTE SEGMENTED NEUTROPHIL” value [1]?
Its value is 817.33 CELLS/uL.

What about the BASOPHIL [1] of the same molecule?
The BASOPHIL was 0%.

What about the EOSINOPHIL [1] of the same molecule?
The EOSINOPHIL was 0.67%.

What about the “ERYTHROCYTE COUNT” value [1] of the same molecule?
Its value is 5.11 x10E6/uL.

What about the HEMATOCRIT [1] of the same molecule?
The HEMATOCRIT was 33.07%.

And the HEMOGLOBIN [1]?
Its HEMOGLOBIN is 13.03 G/DL.

What about the “LEUKOCYTE COUNT” value [1] of the same molecule?
Its value is 8.13 x10E3/uL.

And the LYMPHOCYTE [1]?
The LYMPHOCYTE was 87.67%.

And the “MEAN CORPUSCULAR HEMOGLOBIN” value [1]?
Its value is 25.53 pg.

And the “MEAN CORPUSCULAR HEMOGLOBIN CONCENTRATION” value [1]?
Its value is 39.4 G/DL.

And the “MEAN CORPUSCULAR VOLUME” value [1]?
The value was 64.77 fL.

What about the MONOCYTE [1] of the same molecule?
Its MONOCYTE is 1.67%.

And the NEUTROPHIL [1]?
Its NEUTROPHIL is 10%.

And the “NUCLEATED RED BLOOD CELLS” value [1]?
Its value is 0 /100WBC.

And the “PLATELET COUNT” value [1]?
Its value is 1248.33 x10E3/uL.

What about the “ALANINE AMINOTRANSFERASE” value [1] of the same molecule?
Its value is 61 u/L.

What about the ALBUMIN [1] of the same molecule?
The ALBUMIN was 4.23 G/DL.

And the “ALKALINE PHOSPHATASE” value [1]?
Its value is 355.67 u/L.

And the “ASPARTATE AMINOTRANSFERASE” value [1]?
Its value is 74.67 u/L.

What about the “BLOOD UREA NITROGEN” value [1] of the same molecule?
The value was 11.67 mg/dL.

What about the “CARBON DIOXIDE” value [1] of the same molecule?
The value was 32.33 mmol/L.

And the CHLORIDE [1]?
Its CHLORIDE is 103 MEQ/L.

What about the CHOLESTEROL [1] of the same molecule?
Its CHOLESTEROL is 87.33 mg/dL.

And the “CREATINE PHOSPHOKINASE” value [1]?
Its value is 247.33 u/L.

What about the CREATININE [1] of the same molecule?
Its CREATININE is 0.43 mg/dL.

What about the GLUCOSE [1] of the same molecule?
The GLUCOSE was 152 mg/dL.

And the “LACTATE DEHYDROGENASE” value [1]?
Its value is 82.33 u/L.

And the LIPASE [1]?
Its LIPASE is 11 u/L.

And the PHOSPHORUS [1]?
Its PHOSPHORUS is 11.7 mg/dL.

What about the POTASSIUM [1] of the same molecule?
Its POTASSIUM is 6.04 MEQ/L.

What about the SODIUM [1] of the same molecule?
Its SODIUM is 146.03 MEQ/L.

And the “TOTAL BILIRUBIN” value [1]?
The value was 0.17 mg/dL.

And the “TOTAL PROTEIN” value [1]?
Its value is 5.93 G/DL.

What about the “URIC ACID” value [1] of the same molecule?
Its value is 0.8 mg/dL.

What about the “ABSOLUTE BASOPHIL” value [2] of the same molecule?
The value was 0 CELLS/uL.

What about the “ABSOLUTE EOSINOPHIL” value [2] of the same molecule?
Its value is 0 CELLS/uL.

And the “ABSOLUTE LYMPHOCYTE” value [2]?
The value was 7333 CELLS/uL.

What about the “ABSOLUTE MONOCYTE” value [2] of the same molecule?
Its value is 111.33 CELLS/uL.

And the “ABSOLUTE SEGMENTED NEUTROPHIL” value [2]?
The value was 889 CELLS/uL.

And the BASOPHIL [2]?
Its BASOPHIL is 0%.

And the EOSINOPHIL [2]?
Its EOSINOPHIL is 0%.

What about the “ERYTHROCYTE COUNT” value [2] of the same molecule?
Its value is 5.15 x10E6/uL.

And the HEMATOCRIT [2]?
The HEMATOCRIT was 31.93%.

What about the HEMOGLOBIN [2] of the same molecule?
The HEMOGLOBIN was 12.77 G/DL.

What about the “LEUKOCYTE COUNT” value [2] of the same molecule?
The value was 8.33 x10E3/uL.

And the LYMPHOCYTE [2]?
Its LYMPHOCYTE is 88.33%.

And the “MEAN CORPUSCULAR HEMOGLOBIN” value [2]?
Its value is 24.83 pg.

And the “MEAN CORPUSCULAR HEMOGLOBIN CONCENTRATION” value [2]?
Its value is 40 G/DL.

And the “MEAN CORPUSCULAR VOLUME” value [2]?
The value was 62.17 fL.

What about the MONOCYTE [2] of the same molecule?
The MONOCYTE was 1.33%.

And the NEUTROPHIL [2]?
The NEUTROPHIL was 10.33%.

And the “NUCLEATED RED BLOOD CELLS” value [2]?
Its value is 0 /100WBC.

What about the “PLATELET COUNT” value [2] of the same molecule?
The value was 974.67 x10E3/uL.

What about the “ALANINE AMINOTRANSFERASE” value [2] of the same molecule?
Its value is 103.67 u/L.

What about the ALBUMIN [2] of the same molecule?
Its ALBUMIN is 3.93 G/DL.

And the “ALKALINE PHOSPHATASE” value [2]?
Its value is 409.67 u/L.

What about the “ASPARTATE AMINOTRANSFERASE” value [2] of the same molecule?
The value was 102.67 u/L.

What about the “BLOOD UREA NITROGEN” value [2] of the same molecule?
The value was 11 mg/dL.

What about the “CARBON DIOXIDE” value [2] of the same molecule?
The value was 26 mmol/L.

What about the CHLORIDE [2] of the same molecule?
The CHLORIDE was 102.33 MEQ/L.

What about the CHOLESTEROL [2] of the same molecule?
The CHOLESTEROL was 70.33 mg/dL.

And the “CREATINE PHOSPHOKINASE” value [2]?
The value was 348.33 u/L.

What about the CREATININE [2] of the same molecule?
Its CREATININE is 0.1 mg/dL.

And the GLUCOSE [2]?
The GLUCOSE was 149 mg/dL.

And the “LACTATE DEHYDROGENASE” value [2]?
Its value is 104.67 u/L.

What about the LIPASE [2] of the same molecule?
Its LIPASE is 10.67 u/L.

And the PHOSPHORUS [2]?
Its PHOSPHORUS is 11.3 mg/dL.

And the POTASSIUM [2]?
Its POTASSIUM is 5.02 MEQ/L.

And the SODIUM [2]?
The SODIUM was 144 MEQ/L.

What about the “TOTAL BILIRUBIN” value [2] of the same molecule?
The value was 0.1 mg/dL.

And the “TOTAL PROTEIN” value [2]?
Its value is 5.37 G/DL.

What about the “URIC ACID” value [2] of the same molecule?
Its value is 0.87 mg/dL.

And the “ABSOLUTE BASOPHIL” value [3]?
The value was 0 CELLS/uL.

What about the “ABSOLUTE EOSINOPHIL” value [3] of the same molecule?
Its value is 85.67 CELLS/uL.

What about the “ABSOLUTE LYMPHOCYTE” value [3] of the same molecule?
Its value is 6528 CELLS/uL.

And the “ABSOLUTE MONOCYTE” value [3]?
The value was 164.33 CELLS/uL.

And the “ABSOLUTE SEGMENTED NEUTROPHIL” value [3]?
Its value is 922 CELLS/uL.

What about the BASOPHIL [3] of the same molecule?
The BASOPHIL was 0%.

And the EOSINOPHIL [3]?
The EOSINOPHIL was 1%.

What about the “ERYTHROCYTE COUNT” value [3] of the same molecule?
Its value is 5.25 x10E6/uL.

And the HEMATOCRIT [3]?
Its HEMATOCRIT is 33.4%.

What about the HEMOGLOBIN [3] of the same molecule?
Its HEMOGLOBIN is 12.97 G/DL.

What about the “LEUKOCYTE COUNT” value [3] of the same molecule?
The value was 7.7 x10E3/uL.

What about the LYMPHOCYTE [3] of the same molecule?
The LYMPHOCYTE was 85%.

What about the “MEAN CORPUSCULAR HEMOGLOBIN” value [3] of the same molecule?
The value was 24.7 pg.

And the “MEAN CORPUSCULAR HEMOGLOBIN CONCENTRATION” value [3]?
The value was 38.83 G/DL.

What about the “MEAN CORPUSCULAR VOLUME” value [3] of the same molecule?
The value was 63.67 fL.

And the MONOCYTE [3]?
Its MONOCYTE is 2%.

And the NEUTROPHIL [3]?
Its NEUTROPHIL is 12%.

And the “NUCLEATED RED BLOOD CELLS” value [3]?
The value was 0 /100WBC.

And the “PLATELET COUNT” value [3]?
The value was 1238.33 x10E3/uL.

And the “ALANINE AMINOTRANSFERASE” value [3]?
The value was 55.33 u/L.

What about the ALBUMIN [3] of the same molecule?
The ALBUMIN was 4.33 G/DL.

What about the “ALKALINE PHOSPHATASE” value [3] of the same molecule?
Its value is 297 u/L.

What about the “ASPARTATE AMINOTRANSFERASE” value [3] of the same molecule?
Its value is 76.67 u/L.

And the “BLOOD UREA NITROGEN” value [3]?
Its value is 13.67 mg/dL.

And the “CARBON DIOXIDE” value [3]?
The value was 32.33 mmol/L.

And the CHLORIDE [3]?
The CHLORIDE was 103 MEQ/L.

What about the CHOLESTEROL [3] of the same molecule?
Its CHOLESTEROL is 66.33 mg/dL.

What about the “CREATINE PHOSPHOKINASE” value [3] of the same molecule?
Its value is 232.33 u/L.

And the CREATININE [3]?
Its CREATININE is 0.12 mg/dL.

And the GLUCOSE [3]?
Its GLUCOSE is 157.67 mg/dL.

What about the “LACTATE DEHYDROGENASE” value [3] of the same molecule?
Its value is 64.33 u/L.

What about the LIPASE [3] of the same molecule?
The LIPASE was 10.33 u/L.

And the PHOSPHORUS [3]?
Its PHOSPHORUS is 11.1 mg/dL.

And the POTASSIUM [3]?
Its POTASSIUM is 5.99 MEQ/L.

And the SODIUM [3]?
The SODIUM was 147.03 MEQ/L.

And the “TOTAL BILIRUBIN” value [3]?
The value was 0.1 mg/dL.

And the “TOTAL PROTEIN” value [3]?
The value was 6.07 G/DL.

And the “URIC ACID” value [3]?
The value was 0.5 mg/dL.
